Data published in patent US10526347B2, “3-(3H-imidazo[4,5-B]pyridin-2-yl)-1H-pyrazolo[3,4-B]pyridine and therapeutic uses thereof” (Samumed, LLC, priority 2014, dated 2020).

Key:
[1] = tested on: primary human fibroblasts derived from IPF patients (LL29 cells); assay: Inhibition of the fibrotic process in TGF-β1 treated IPF patient fibroblasts (αSMA staining); type: cell-based; conditions: Fibroblast, 96 h, LL29 cells treated with TGF-β1 (20 ng/mL), 4 days, read-out: Inhibition of fibrosis EC50
Description: The above synthesized compounds were screened using primary human fibroblasts (derived from IPF patients) treated with TGF-β1 to determine their ability to inhibit the fibrotic process.
Primary human fibroblasts derived from IPF patients (LL29 cells) [^1Xiaoqiu Liu, et. al., “Fibrotic Lung Fibroblasts Show Blunted Inhibition by cAMP Due to Deficient cAMP Response Element-Binding Protein Phosphorylation”, Journal of Pharmacology and Experimental Therapeutics (2005), 315(2), 678-687; ^2Watts, K. L., et. al., “RhoA signaling modulates cyclin D1 expression in human lung fibroblasts; implications for idiopathic pulmonary fibrosis”, Respiratory Research (2006), 7(1), 88] were obtained from American Type Culture Collection (ATCC) and expanded in F12 medium supplemented with 15% Fetal Bovine Serum and Penicillin/Streptomycin.
Each compound was dissolved in DMSO as a 10 mM stock and used to prepare compound source plates. Serial dilution (1:2, 11-point dose-response curves from 10 μM to 1.87 nM) and compound transfer was performed using the ECHO 550 (Labcyte, Sunnyvale, Calif.) into 384-well clear bottom assay plates (Greiner Bio-One) with appropriate DMSO backfill for a final DMSO concentration of 0.1%. LL29 cells were plated at 1,500 cells/well in 80 μl/well F12 medium supplemented with 1% Fetal Bovine Serum. One hour after addition of the cells, TGF-β1 (Peprotech; 20 ng/mL) was added to the plates to induce fibrosis (ref. 1 and 2 above). Wells treated with TGF-β1 and containing DMSO were used as controls. Cells were incubated at 37° C. and 5% CO2 for 4 days. Following incubation for 4 days, SYTOX green nucleic acid stain (Life Technologies [Thermo Fisher Scientific]) was added to the wells at a final concentration of 1 uM and incubated at room temperature for 30 min. Cells were then fixed using 4% formaldehyde (Electron Microscopy Sciences), washed 3 times with PBS followed by blocking and permeabilization using 3% Bovine Serum Albumin (BSA; Sigma) and 0.3% Triton X-100 (Sigma) in PBS. Cells were then stained with antibody specific to α-smooth muscle actin (αSMA; Abcam) (ref. 1 and 2 above) in 3% Bovine Serum Albumin (BSA; Sigma) and 0.3% Triton X-100 (Sigma) in PBS, and incubated overnight at 4° C. Cells were then washed 3 times with PBS, followed by incubation with Alexa Flor-647 conjugated secondary antibody (Life Technologies [Thermo Fisher Scientific]) and DAPI at room temperature for 1 hour. Cells were then washed 3 times with PBS and plates were sealed for imaging. αSMA staining was imaged by excitation at 630 nm and emission at 665 nm and quantified using the Compartmental Analysis program on the CellInsight CX5 (Thermo Scientific). Dead or apoptotic cells were excluded from analysis based on positive SYTOX green staining. % of total cells positive for αSMA were counted in each well and normalized to the average of 11 wells treated with TGF-β1 on the same plate using Dotmatics' Studies Software. The normalized averages (fold change over untreated) of 3 replicate wells for each compound concentration were used to create dose-responses curves and EC50 values were calculated using non-linear regression curve fit in the Dotmatics' Studies Software. The EC50 values are reported.

[2] = tested on: Wnt activity (SW480 colon carcinoma cells stably expressing the Sp5-Luc reporter gene); assay: Sp5-Luc reporter gene screening assay for Wnt activity; type: cell-based; conditions: Homo sapiens
Description: The screening assay for Wnt activity is described as follows. Reporter cell lines can be generated by stably transducing cancer cell lines (e.g., colon cancer) or primary cells (e.g., IEC-6 intestinal cells) with a lentiviral construct that includes a Wnt-responsive promoter driving expression of the firefly luciferase gene.
SW480 colon carcinoma cells were transduced with a lentiviral vector expressing luciferase with a human Sp5 promoter consisting of a sequence of eight TCF/LEF binding sites. SW480 cells stably expressing the Sp5-Luc reporter gene and a hygromycin resistance gene were selected by treatment with 150 μg/ml of hygromycin for 7 days. These stably transduced SW480 cells were expanded in cell culture and used for all further screening activities. For Sp5-Luc reporter gene assays, the cells were plated at 10,000 cells/well in 96-well plates with growth medium containing 10% fetal calf serum and incubated overnight at 37° C. and 5% CO2. Each compound was dissolved in DMSO as a 10 mM stock in standard j-vials and used to prepare compound source plates in dose-response format with 3-fold serial dilutions and a 10 mM top concentration. Compound transfer from serially diluted source plates to assay plates containing the cells was accomplished using a pintool (Multimek 96, Beckman equipped with V&P Scientific FP1S50H pins) based liquid handling protocol. This protocol used a slotted pin to transfer 50 nl of compound from a source plate well to an assay plate well containing 50 μl of cells in growth medium. […] Control wells received 50 nl of DMSO treatment for normalization and calculating IC50 values. The treated cells were incubated at 37° C. and 5% CO2 for an additional forty-two hours. Following incubation, the growth medium was removed and 50 μl of BrightGlo luminescence reagent (Promega) was added to each well of the 96-well assay plates. The plates were placed on an orbital shaker for 5 min and then luminescence was quantified on the Victor3 (Perkin Elmer) plate reader. Readings were normalized to DMSO only treated cells, and normalized activities were utilized for IC50 calculations using the dose-response log (inhibitor) vs. response -variable slope (four parameters) nonlinear regression feature available in GraphPad Prism 5.0 or 6.0.

| SMILES | IC50 [2] [nM] | EC50 [1] [nM] |
| --- | --- | --- |
| c1cncc(-c2ccnc3[nH]c(-c4n[nH]c5ncc(-c6cncc(CN7CCCCC7)c6)cc45)nc23)c1 [Compound 78, 5-(5-(Piperidin-1-ylmethyl)pyridin-3-yl)-3-(7-(pyridin-3-yl)-3H-imidazo[4,5-b]pyridin-2-yl)-1H-pyrazolo[3,4-b]pyridine] | > 10000 | ≥ 9990 |
| Cc1cn(-c2ccnc3[nH]c(-c4n[nH]c5ncc(-c6cncc(NC(=O)C(C)(C)C)c6)cc45)nc23)cn1 [Compound 165, N-(5-(3-(7-(4-Methyl-1H-imidazol-1-yl)-3H-imidazo[4,5-b]pyridin-2-yl)-1H-pyrazolo[3,4-b]pyridin-5-yl)pyridin-3-yl)pivalamide] | > 10000 | ≥ 9990 |
| CC(C)(C)C(=O)Nc1cncc(-c2cnc3[nH]nc(-c4nc5c(-c6ccc(F)cc6)ccnc5[nH]4)c3c2)c1 [Compound 28, N-(5-(3-(7-(4-Fluorophenyl)-3H-imidazo[4,5-b]pyridin-2-yl)-1H-pyrazolo[3,4-b]pyridin-5-yl)pyridin-3-yl)pivalamide] | 42.3 | 26 |
| O=C(Nc1cncc(-c2cnc3[nH]nc(-c4nc5c(-c6ccccc6F)ccnc5[nH]4)c3c2)c1)C1CCCC1 [Compound 61, N-(5-(3-(7-(2-Fluorophenyl)-3H-imidazo[4,5-b]pyridin-2-yl)-1H-pyrazolo[3,4-b]pyridin-5-yl)pyridin-3-yl)cyclopentanecarboxamide] | 42 | 587 |
| CCNCc1cncc(-c2cnc3[nH]nc(-c4nc5c(-c6ccccn6)ccnc5[nH]4)c3c2)c1 [Compound 114, N-((5-(3-(7-(Pyridin-2-yl)-3H-imidazo[4,5-b]pyridin-2-yl)-1H-pyrazolo[3,4-b]pyridin-5-yl)pyridin-3-yl)methyl)ethanamine] | > 10000 | ≥ 9990 |
| Cc1ccncc1-c1cnc2[nH]nc(-c3nc4c(-c5ccncc5)ccnc4[nH]3)c2c1 [Compound 91, 5-(4-Methylpyridin-3-yl)-3-(7-(pyridin-4-yl)-3H-imidazo[4,5-b]pyridin-2-yl)-1H-pyrazolo[3,4-b]pyridine] | > 10000 | ≥ 9990 |
| c1cncc(-c2cnc3[nH]nc(-c4nc5c(-c6cccnc6)ccnc5[nH]4)c3c2)c1 [Compound 68, 5-(Pyridin-3-yl)-3-(7-(pyridin-3-yl)-3H-imidazo[4,5-b]pyridin-2-yl)-1H-pyrazolo[3,4-b]pyridine] | > 10000 | ≥ 9990 |
| CCCC(=O)Nc1cncc(-c2cnc3[nH]nc(-c4nc5c(-c6ccncc6)ccnc5[nH]4)c3c2)c1 [Compound 102, N-(5-(3-(7-(Pyridin-4-yl)-3H-imidazo[4,5-b]pyridin-2-yl)-1H-pyrazolo[3,4-b]pyridin-5-yl)pyridin-3-yl)butyramide] | 2380 | ≥ 9990 |

Second part, led by results:

| IC50 [2] [nM] | SMILES | EC50 [1] [nM] |
| --- | --- | --- |
| > 10000 | CC(C)C(=O)Nc1cncc(-c2cnc3[nH]nc(-c4nc5c(N6CCN(C)CC6)ccnc5[nH]4)c3c2)c1 [Compound 192, N-(5-(3-(7-(4-Methylpiperazin-1-yl)-3H-imidazo[4,5-b]pyridin-2-yl)-1H-pyrazolo[3,4-b]pyridin-5-yl)pyridin-3-yl)isobutyramide] | ≤ 9 |
| > 10000 | CCNCc1cncc(-c2cnc3[nH]nc(-c4nc5c(-c6ccoc6)ccnc5[nH]4)c3c2)c1 [Compound 264, N-((5-(3-(7-(Furan-3-yl)-3H-imidazo[4,5-b]pyridin-2-yl)-1H-pyrazolo [3,4-b]pyridin-5-yl)pyridin-3-yl)methyl)ethanamine] | ≤ 9 |
| > 10000 | CS(=O)(=O)NCc1cc(F)cc(-c2ccnc3[nH]c(-c4n[nH]c5ncc(-c6cncnc6)cc45)nc23)c1 [Compound 414, N-(3-Fluoro-5-(2-(5-(pyrimidin-5-yl)-1H-pyrazolo[3,4-b]pyridin-3-yl)-3H-imidazo[4,5-b]pyridin-7-yl)benzyl)methanesulfonamide] | ≥ 9990 |
| > 10000 | Fc1cccc(-c2ccnc3[nH]c(-c4n[nH]c5ncc(-c6cncc(OC7CCNCC7)c6)cc45)nc23)c1 [Compound 916, 3-(7-(3-Fluorophenyl)-3H-imidazo[4,5-b]pyridin-2-yl)-5-(5-(piperidin-4-yloxy)pyridin-3-yl)-1H-pyrazolo[3,4-b]pyridine] | ≤ 9 |
| 8 | Cc1ccc(-c2ccnc3[nH]c(-c4n[nH]c5ncc(-c6cncc(NC(=O)C7CCCC7)c6)cc45)nc23)s1 [Compound 357, N-(5-(3-(7-(5-Methylthiophen-2-yl)-3H-imidazo[4,5-b]pyridin-2-yl)-1H-pyrazolo[3,4-b]pyridin-5-yl)pyridin-3-yl)cyclopentanecarboxamide] | 1390 |
| > 10000 | Cc1ccc(-c2ccnc3[nH]c(-c4n[nH]c5ncc(-c6cncc(CN7CCCCC7)c6)cc45)nc23)s1 [Compound 351, 3-(7-(5-Methylthiophen-2-yl)-3H-imidazo[4,5-b]pyridin-2-yl)-5-(5-(piperidin-1-ylmethyl)pyridin-3-yl)-1H-pyrazolo[3,4-b]pyridine] | ≥ 9990 |
| 33 | O=C(Nc1cncc(-c2cnc3[nH]nc(-c4nc5c(-c6ccsc6)ccnc5[nH]4)c3c2)c1)c1ccccc1 [Compound 243, N-(5-(3-(7-(Thiophen-3-yl)-3H-imidazo[4,5-b]pyridin-2-yl)-1H-pyrazolo[3,4-b]pyridin-5-yl)pyridin-3-yl)benzamide] | 113 |
| 276 | Cc1cn(-c2ccnc3[nH]c(-c4n[nH]c5ncc(-c6cncc(CN7CCCC7)c6)cc45)nc23)cn1 [Compound 171, 3-(7-(4-Methyl-1H-imidazol-1-yl)-3H-imidazo[4,5-b]pyridin-2-yl)-5-(5-(pyrrolidin-1-ylmethyl)pyridin-3-yl)-1H-pyrazolo[3,4-b]pyridine] | ≤ 9 |
| > 10000 | Fc1cccc(-c2ccnc3[nH]c(-c4n[nH]c5ncc(-c6cnccn6)cc45)nc23)c1 [Compound 926, 3-(7-(3-Fluorophenyl)-3H-imidazo[4,5-b]pyridin-2-yl)-5-(pyrazin-2-yl)-1H-pyrazolo[3,4-b]pyridine] | 13 |
| > 10000 | CC(=O)c1ccc(-c2ccnc3[nH]c(-c4n[nH]c5ncc(-c6cncc(NC(=O)C7CCCCC7)c6)cc45)nc23)s1 [Compound 384, N-(5-(3-(7-(5-Acetylthiophen-2-yl)-3H-imidazo[4,5-b]pyridin-2-yl)-1H-pyrazolo[3,4-b]pyridin-5-yl)pyridin-3-yl)cyclohexanecarboxamide] | ≥ 9990 |
| 221 | Cn1cc(-c2cnc3[nH]nc(-c4nc5c(-c6cccc(F)c6)ccnc5[nH]4)c3c2)cn1 [Compound 912, 3-(7-(3-Fluorophenyl)-3H-imidazo[4,5-b]pyridin-2-yl)-5-(1-methyl-1H-pyrazol-4-yl)-1H-pyrazolo[3,4-b]pyridine] | 118 |
